Reference: patent US20190307820A1, “COMPOSITIONS AND METHODS OF USING STAT1/3 INHIBITORS WITH ONCOLYTIC HERPES VIRUS” (priority 2016, published 2019)

What was measured:
[1] = test system: pSTAT3 (Tyr705); test: Western blot of pSTAT3 (Tyr705) in BV2 microglia cells; type: cell-based, mouse; conditions: C16 1 μM
Procedure: BV2 cells were pre-treated with vehicle or C16 (1 μM) for 2 hours and then incubated with vehicle or oHSV-1 (G207) at an MOI of 1 or oHSV-1 and C16 combination for 24 hours. Total protein was harvested and subjected to western blot assay. β-actin expression was used for loading control (means±SE).
BV2 cells were treated with either vehicle or Lps (1 μg/ml) or Lps (1 μg/ml) with C16 (1 μM) for 24 hours. Total protein was harvested and subjected to western blot assay. β-actin expression was used for loading control (means±SE).
Total protein was harvested with sample buffer (125 mM Tris-HCL, 50% Glycerol, […] and 5% 2-mercaptoethanol) and boiled for 5 minutes. Protein samples were subjected to SDS-PAGE (8% gel), transferred to nitrocellulose membranes and blocked in 5% nonfat milk (Bio Rad) in TBS-Tween 20 (TBS-T) for 1 hour at room temperature. […] Band density was measured by using ImageJ software (NIH, Bethesda, Md.).

[2] = test system: oHSV-1 (HrR3) in U87 cells; test: oHSV-1 (HrR3) replication in U87 cells, titrated in vero cells; type: cell-based, HSV-1; conditions: HrR3 MOI-0.1, 48 hours
Procedure: (§1) FIGS. 2A-2B contain charts that show the effect of nifuroxazide on replication of oHSV-1. (FIG. 2A) Indicated cells were infected with HrR3 viruses at MOI-0.1. Viruses were harvested at 48 hours post-infected and titrated in vero cells. Data are presented as mean SD, *P<0.05 vs corresponding vehicle treatment. (FIG. 2B) U87 or glio cells were treated with HrR3 at a MOI of 1 and indicated concentration of nifuroxazide for 48 hours. Total DNA was extracted and subjected to qPCR to detect HSV-1 using ICP27 primer. nifuroxazide mediated oHSV-1% increase was represented in the figure.
(§2) In this example, the effect of nifuroxazide on oHSV-1 anti-tumor efficacy was evaluated. oHSV-1 infected treated glioma cells were incubated with low concentration of nifuroxazide. Replication increased 27- and 40-fold with 0.5 μM nifuroxazide and 10 μM nifuroxazide treated U87 cells respectively. Similarly, virus replication increased 0.8- and 4.7-fold virus in 9L cells treated with 0.5 μM nifuroxazide and 10 μM nifuroxazide respectively (FIG. 2A).

[3] = test system: HrR3 in U87 glioma cells; test: PCR viral titer (ICP27 qPCR) of HrR3 in U87 glioma cells; type: cell-based, HSV-1; conditions: HrR3 MOI of 1, 48 hours
Procedure: as §1, §2

Q: With `O=C1Nc2ccc3ncsc3c2/C1=C/c1c[nH]cn1` [C16, 6,8-Dihydro-8-(1H-imidazol-5-ylmethylene)-7H-pyrrolo[2,3-g]benzothiazol-7-one] as the compound, how does the “upregulation of pSTAT3 (Tyr705) induced by oHSV-1” value ([1]; G207 MOI of 1, 24 hours) read?
A: significantly suppress the upregulation

Q: And the “STAT 3 phosphorylation, LPS treated” value ([1]; Lps 1 μg/ml, 24 hours)?
A: inhibition in STAT 1/3 phosphorylation

Q: Which results are given for `O=C(N/N=C/c1ccc([N+](=O)[O-])o1)c1ccc(O)cc1` [nifuroxazide, Benzoic acid, 4-hydroxy-, [(5-nitro-2-furanyl)metylene]hydrazide]?
A: Replication increased ([2]; 0.5 μM nifuroxazide): 27 fold; Replication increased ([2]; 10 μM nifuroxazide): 40 fold; PCR viral titer [3]: dose dependent HrR3 replication enhancement
